Assay results: patent US9695119B2, “Methionine analogs and methods of using same” (Bioxiness Pharmaceuticals, Inc., priority 2008, dated 2017)

Assays:
Format in all cases: cell-based
E. coli (DH5-α) = assay: Growth inhibition of E. coli by methionine analogs, 96-well plate, OD 550 nm over time; details: for Absorbance: 12.5 mM, OD 550 nm
Source text: Comparative Minimum Bactericidal Concentration (MBC) results provide estimates of the susceptibility of various test articles against test organisms. A modification of the […] (NCCL) Standardized Protocol “Methods for dilution antimicrobial susceptibility tests for bacteria that grow aerobically” was used in these studies. Sterile Phosphate Buffer Saline (PBS) at pH 7.0 (vehicle) was used as the diluent. Use of such diluent allows for the determination of the intrinsic activity of our test articles in the absence of any interfering molecules. Specifically, each test article was diluted using 2-fold serial dilution in 96-well plate to give a range of concentrations from approximately 50 mM to 0.05 mM in a final volume of 0.1 mL. Each dilution was inoculated with 5×10^5 CFU/mL test bacteria. The initial optical density as absorbance of each well was read at OD 550 nm using ThermoMax plate reader. […] At various time intervals post-treatment, OD reading at 550 nm was recorded at various time intervals. FIG. 1A and Table 1 show time dependent growth inhibition capability of analogs on E. coli at 12.5 mM. For FIGS. 1A and 1B, the 96-well plate format was used to culture E. coli (DH5-α) cells in M9 minimal media supplemented with glucose (M9) or same media supplemented with a range of concentrations of various analogs. Experiments were carried out in duplicate.

Ps. sturtzeri = assay: Broad spectrum bacterial growth inhibition, 96-well plate, M9 media
Description: (§1) Table 2 and FIG. 2 summarizes a series of studies, which were performed to test eradication of bacterial growth using various species (representative strains of gram positive and gram negative microorganisms commonly associated with wound infection). A 96-well plate format was used to culture different bacteria in M9 minimal media supplemented with glucose (M9) or same media supplemented with a range of concentrations of various analogues (Methionine, I-AA and I-AB). Experiments were carried out in duplicate.

S. aureus = assay: as above
Description: as §1

S. epidermids = assay: as above
Description: as §1

CSCC[C@H](NC(=O)CN)C(=O)NO.Cl [I-AB, (S)-2-(2-aminoacetamido)-N-hydroxy-4-(methylthio)butanamide hydrochloride]
Absorbance (E. coli (DH5-α); E. coli, well 12, time 0 hrs): 0.085 | Absorbance (E. coli (DH5-α); E. coli, well 12, time 1 hrs): 0.095 | Absorbance (E. coli (DH5-α); E. coli, well 12, time 2 hrs): 0.111 | Absorbance (E. coli (DH5-α); E. coli, well 12, time 3 hrs): 0.104 | Absorbance (E. coli (DH5-α); E. coli, well 12, time 3.75 hrs): 0.090 | Absorbance (E. coli (DH5-α); E. coli, well 12, time 5 hrs): 0.094 | Absorbance (E. coli (DH5-α); E. coli, well 12, time 6.5 hrs): 0.090 | Absorbance (E. coli (DH5-α); E. coli, well 12, time 7.25 hrs): 0.089 | Absorbance (E. coli (DH5-α); E. coli, well 12, time 23 hrs): 0.091 | Concentration dependence of bacterial growth inhibition (E. coli (DH5-α); E. coli, spot inoculated agar plate (FIG. 1B)): concentration-dependent | E. coli growth inhibition (E. coli (DH5-α); as compared to M9 and other analogs): significantly inhibited | Broad Spectrum Bacterial Growth Inhibition Data, Ps. sturtzeri (Ps. sturtzeri; Conc. 0.0, well 4, M9 media): 0.5 | Broad Spectrum Bacterial Growth Inhibition Data, Ps. sturtzeri (Ps. sturtzeri; Conc. 0.1, well 5, M9 media): 0.5 | Broad Spectrum Bacterial Growth Inhibition Data, Ps. sturtzeri (Ps. sturtzeri; Conc. 0.2, well 6, M9 media): 0.3 | Broad Spectrum Bacterial Growth Inhibition Data, Ps. sturtzeri (Ps. sturtzeri; Conc. 0.4, well 7, M9 media): 0.3 | Broad Spectrum Bacterial Growth Inhibition Data, Ps. sturtzeri (Ps. sturtzeri; Conc. 0.8, well 8, M9 media): 0.2 | Broad Spectrum Bacterial Growth Inhibition Data, Ps. sturtzeri (Ps. sturtzeri; Conc. 1.6, well 9, M9 media): 0.2 | Broad Spectrum Bacterial Growth Inhibition Data, Ps. sturtzeri (Ps. sturtzeri; Conc. 3.1, well 10, M9 media): 0.2 | Broad Spectrum Bacterial Growth Inhibition Data, Ps. sturtzeri (Ps. sturtzeri; Conc. 6.3, well 11, M9 media): 0.2 | Broad Spectrum Bacterial Growth Inhibition Data, Ps. sturtzeri (Ps. sturtzeri; Conc. 12.5, well 12, M9 media): 0.2 | Broad Spectrum Bacterial Growth Inhibition Data, S. aureus (S. aureus; Conc. 0.0, well 4, M9 media): 0.6 | Broad Spectrum Bacterial Growth Inhibition Data, S. aureus (S. aureus; Conc. 0.1, well 5, M9 media): 0.6 | Broad Spectrum Bacterial Growth Inhibition Data, S. aureus (S. aureus; Conc. 0.2, well 6, M9 media): 0.5 | Broad Spectrum Bacterial Growth Inhibition Data, S. aureus (S. aureus; Conc. 0.4, well 7, M9 media): 0.5 | Broad Spectrum Bacterial Growth Inhibition Data, S. aureus (S. aureus; Conc. 0.8, well 8, M9 media): 0.5 | Broad Spectrum Bacterial Growth Inhibition Data, S. aureus (S. aureus; Conc. 1.6, well 9, M9 media): 0.4 | Broad Spectrum Bacterial Growth Inhibition Data, S. aureus (S. aureus; Conc. 3.1, well 10, M9 media): 0.2 | Broad Spectrum Bacterial Growth Inhibition Data, S. aureus (S. aureus; Conc. 6.3, well 11, M9 media): 0.1 | Broad Spectrum Bacterial Growth Inhibition Data, S. aureus (S. aureus; Conc. 12.5, well 12, M9 media): 0.1 | Broad Spectrum Bacterial Growth Inhibition Data, S. epidermids (S. epidermids; Conc. 0.0, well 4, M9 media): 0.7 | Broad Spectrum Bacterial Growth Inhibition Data, S. epidermids (S. epidermids; Conc. 0.1, well 5, M9 media): 0.7 | Broad Spectrum Bacterial Growth Inhibition Data, S. epidermids (S. epidermids; Conc. 0.2, well 6, M9 media): 0.6 | Broad Spectrum Bacterial Growth Inhibition Data, S. epidermids (S. epidermids; Conc. 0.4, well 7, M9 media): 0.3 | Broad Spectrum Bacterial Growth Inhibition Data, S. epidermids (S. epidermids; Conc. 0.8, well 8, M9 media): 0.2 | Broad Spectrum Bacterial Growth Inhibition Data, S. epidermids (S. epidermids; Conc. 1.6, well 9, M9 media): 0.2 | Broad Spectrum Bacterial Growth Inhibition Data, S. epidermids (S. epidermids; Conc. 3.1, well 10, M9 media): 0.1 | Broad Spectrum Bacterial Growth Inhibition Data, S. epidermids (S. epidermids; Conc. 6.3, well 11, M9 media): 0.1 | Broad Spectrum Bacterial Growth Inhibition Data, S. epidermids (S. epidermids; Conc. 12.5, well 12, M9 media): 0.1
